“And” between values parts separate entries of the source, which are not always exact repeats. Identical values can stand only once.
Key:
[1] = test system: CYP3A; set-up: method as in PMID 21348537; conditions: read-out: IC50 for CYP3A inhibition; cited from earlier work
[2] = in vitro; format: in vitro ADME, human; conditions: human, microsomes
Procedure: (§1) The reaction was carried out using human liver microsomes in 0.1 M potassium phosphate buffer at pH 7.4 as described previously. […] After pre-incubation at 37°C for 10 minutes, 3 mM final concentration of NADPH was added to initiate the metabolic reaction. After 7 minutes incubation at 37°C the reactions were terminated by adding 1:3 volumes of cold acetonitrile. For the time kinetic study, the reaction was terminated at various time points (0.0, 2.5, 5, 10, 15, 20, 30, and 60 minutes). […] The Prior to LCMS/MS analysis the analyte was extracted from the microsomes by a protein precipitation method as described previously. The concentrations of all the drugs were quantified using Ab Sciex Analyst® software. Microsomal kinetic data were analyzed using Michaelis-Menten and exponential decay equations. CYP3A4 inhibition data were evaluated by fitting the values to dose-response inhibition and calculated IC50 values were reported. All graphs were plotted and two-tailed t-tests were performed wherever appropriate using GraphPad Prism 5.01 (GraphPad, San Diego, CA). Significant differences between more than two groups analyzed with one-way ANOVA followed by Dunnett's multiple comparison tests using IBM […] version 20. […] To study the influence of alcohol consumption on EVG metabolism, 20 mM ethanol (physiological concentration in moderate drinker) was used to treat human liver microsomes. […] EVG degradation/metabolism at 4 μM followed a pseudo-first-order kinetic. Therefore, we fit the data to an exponential one phase decay equation to determine the apparent half-life (t1/2) and rate constant K.

[3] = test system: human liver microsomes; assay: in vitro; format: in vitro ADME; conditions: for EVG remaining: human, microsomes, 4 μM, pH 7.4
Procedure: as §1

[4] = molecular target: T1, human recombinant CYP3A4 (Homo sapiens, UniProt P08684); assay: CYP3A4 inhibition, Vivid CYP450 blue screening kit with baculosomes; format: biochemical; conditions: for CYP3A4 activity (Fig 5 data): control = 100
T1 construct: purchased Life Technologies P2858; host or cells: baculosomes (baculovirus-infected insect cell microsomes)
Procedure: CYP3A4 inhibition assay was carried out by using Vivid® CYP450 Screening Kit from Life Technologies as recommended by the manufacturer (# P2858, Carlsbad, CA). This assay allows rapid measurement of interactions between drugs of interest and CYP enzymes based on their capability to inhibit the production of a fluorescent signal in reactions using CYP BACULOSOMES® Plus Reagents and specific Vivid® Substrates. Briefly, the assay was conducted in a 96-well assay plate. […] The final concentrations of 2.5, 5, 7.5, 10, 25, 50, 75, and 100 μM were achieved by diluting the stocks in 1X Vivid® CYP reaction buffer. […] For ethanol only experiment, 2.5, 5, […], 20, 30, and 50 mM final concentrations were used. The final concentration of acetonitrile in each reaction was 0.01% in 100 μl final reaction volume. The fluorescence was immediately measured using a microplate reader (Cytation™ 5 Cell Imaging Multi-Mode Reader, BioTek, VT) at the 415/460 nm excitation and emission wavelengths.
The concentrations of all the drugs were quantified using Ab Sciex Analyst® software. Microsomal kinetic data were analyzed using Michaelis-Menten and exponential decay equations. CYP3A4 inhibition data were evaluated by fitting the values to dose-response inhibition and calculated IC50 values were reported. All graphs were plotted and two-tailed t-tests were performed wherever appropriate using GraphPad Prism 5.01 (GraphPad, San Diego, CA). Significant differences between more than two groups analyzed with one-way ANOVA followed by Dunnett’s multiple comparison tests using IBM SPSS […] version 20. A p value <0.05 was considered significant compared to respective controls. The original data and/or statistical analyses for Michaelis-Menten Kinetics, drug metabolism and half-life determination, inhibition studies, and ligand docking are provided in the supporting information (S1 file).

[5] = Substrate (saturation) kinetics of EVG metabolism in human liver microsomes; format: in vitro ADME; conditions: human
Procedure: (§2) The reaction was carried out using human liver microsomes in 0.1 M potassium phosphate buffer at pH 7.4 as described previously. […] After pre-incubation at 37°C for 10 minutes, 3 mM final concentration of NADPH was added to initiate the metabolic reaction. After 7 minutes incubation at 37°C the reactions were terminated by adding 1:3 volumes of cold acetonitrile. For the time kinetic study, the reaction was terminated at various time points (0.0, 2.5, 5, 10, 15, 20, 30, and 60 minutes). […] The Prior to LCMS/MS analysis the analyte was extracted from the microsomes by a protein precipitation method as described previously. The concentrations of all the drugs were quantified using Ab Sciex Analyst® software. Microsomal kinetic data were analyzed using Michaelis-Menten and exponential decay equations. CYP3A4 inhibition data were evaluated by fitting the values to dose-response inhibition and calculated IC50 values were reported. All graphs were plotted and two-tailed t-tests were performed wherever appropriate using GraphPad Prism 5.01 (GraphPad, San Diego, CA). Significant differences between more than two groups analyzed with one-way ANOVA followed by Dunnett's multiple comparison tests using IBM […] version 20.

[6] = test system: human liver microsomes; assay: as above; format: in vitro ADME
Procedure: as §2

[7] = plasma pharmacokinetics; cited from earlier work
[8] = With Ethanol, three values per group
[9] = three values per group used for statistics

T1 sequence (P08684 whole entry): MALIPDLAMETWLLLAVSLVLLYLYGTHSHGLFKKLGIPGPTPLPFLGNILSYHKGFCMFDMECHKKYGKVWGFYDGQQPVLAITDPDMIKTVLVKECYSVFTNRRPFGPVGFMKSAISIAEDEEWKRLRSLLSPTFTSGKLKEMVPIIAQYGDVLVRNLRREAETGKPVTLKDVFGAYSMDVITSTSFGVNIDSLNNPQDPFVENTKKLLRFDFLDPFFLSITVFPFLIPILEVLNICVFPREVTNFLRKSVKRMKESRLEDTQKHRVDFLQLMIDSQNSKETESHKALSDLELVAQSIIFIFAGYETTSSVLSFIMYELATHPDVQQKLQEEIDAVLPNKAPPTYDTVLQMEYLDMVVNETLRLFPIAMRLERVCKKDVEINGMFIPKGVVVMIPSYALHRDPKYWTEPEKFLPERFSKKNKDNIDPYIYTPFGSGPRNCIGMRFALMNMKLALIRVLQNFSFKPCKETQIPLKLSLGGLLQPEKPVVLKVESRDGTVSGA

Structure (SMILES): COc1cc2c(cc1Cc1cccc(Cl)c1F)c(=O)c(C(=O)O)cn2[C@H](CO)C(C)C [EVG, Elvitegravir]
- IC50 [1]: 63 µM
- half-life at 4 μM ([2]; pH 7.4, Half-life): 12.1 min
- half-life at 4 μM ([2]; pH 7.4, Half-life (minutes)): 17 ± 1 min
- Rate Constant 'K' [3, 8]: 0.05
- EVG remaining ([3]; 0 h): 100 % of control
- EVG remaining ([3]; 2.5 min): 96.6 % of control
- EVG remaining ([3]; 5 min): 93.5 % of control
- EVG remaining ([3]; 10 min): 77.8 % of control
- EVG remaining ([3]; 0.25 h): 63.6 % of control
- EVG remaining ([3]; 20 min): 45.2 % of control
- EVG remaining ([3]; 0.5 h): 30.4 % of control
- EVG remaining ([3]; 1 h): 14.2 % of control
- CYP3A4 activity (Fig 5 data) ([4]; EVG 2.5 uM): 77.957
- CYP3A4 activity (Fig 5 data) ([4]; EVG 5 uM): 63.9794
- CYP3A4 activity (Fig 5 data) ([4]; EVG 7.5 uM): 59.992
- CYP3A4 activity (Fig 5 data) ([4]; EVG 10 uM): 55.6409
- CYP3A4 activity (Fig 5 data) ([4]; EVG 25 uM): 40.6332
- CYP3A4 activity (Fig 5 data) ([4]; EVG 50 uM): 32.8987
- CYP3A4 activity (Fig 5 data) ([4]; EVG 75 uM): 28.0321
- CYP3A4 activity (Fig 5 data) ([4]; EVG 100 uM): 18.7817
- IC50 ([4]; EVG with ethanol at 20 mM): 17.5 ± 1.5 µM
- IC50 ([4]; EtOH 20 mM, COBI at concentration matching EVG unless 0.04 μM stated): 13 µM and 13.1 µM
- IC50 [4, 8]: 19 µM and 16.5 µM
- increase in the IC50 by ethanol ([4]; ethanol at 20 mM compared to EVG alone): 34%
- Km at 7 min ([5]; pH 7.4, EVG 4-200 μM, COBI at same ratio, EtOH 20 mM): 68 ± 17 µM
- Km at 7 min ([5]; pH 7.4, in the presence of ethanol): 115 ± 18 µM
- Km at 7 min ([5]; pH 7.4, three values per group used for statistics): 68.3 µM
- Km at 7 min ([5]; pH 7.4, when COBI is present): 189 ± 46 µM
- enzyme activity (Fig 4 data) ([6]; EVG 4): 3.7 μmol/min/mg protein
- enzyme activity (Fig 4 data) ([6]; EVG 8): 7.7 μmol/min/mg protein
- enzyme activity (Fig 4 data) ([6]; EVG 20): 19.5 μmol/min/mg protein
- enzyme activity (Fig 4 data) ([6]; EVG 40): 38.6 μmol/min/mg protein
- enzyme activity (Fig 4 data) ([6]; EVG 60): 55.9 μmol/min/mg protein
- enzyme activity (Fig 4 data) ([6]; EVG 80): 68.9 μmol/min/mg protein
- enzyme activity (Fig 4 data) ([6]; EVG 100): 74.7 μmol/min/mg protein
- enzyme activity (Fig 4 data) ([6]; EVG 120): 71.9 μmol/min/mg protein
- enzyme activity (Fig 4 data) ([6]; EVG 160): 70.9 μmol/min/mg protein
- enzyme activity (Fig 4 data) ([6]; EVG 200): 84.3 μmol/min/mg protein
- Vmax ([6]; EVG alone): 162 ± 16 μmol/min/mg protein
- Vmax ([6]; in the presence of ethanol): 221 ± 18 μmol/min/mg protein
- Km [6, 9]: 65.2 µM and 68.7 µM
- Vmax [6, 9]: 162.1 and 157.8 and 158.3
- Vmax ([6]; when COBI is present): 308 ± 45 μmol/min/mg protein
- plasma half-life [7]: 120 to 180 min

Source: publication PMC4752462 (PLoS ONE, 2016)
